# Assay results reported in the supplement of paper PMC5770543.
# ± gives the standard deviation.
# Experiments:
# [1] = test system: Toxoplasma gondii RH tachyzoites; test: plaque count per well; higher = less inhibition; extreme values may be limits of the assay; conditions: 10 µM; 8-10 days
# Procedure: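 T. gondii RH tachyzoites expressing firefly luciferase were grown in HFF monolayers for 48 h with compound. % growth inhibition at 10 µM and EC50 (2-fold dilutions from 10 µM) were read by luminescence relative to 1% DMSO; EC50 listed as 10 (not determined, <80% inhibition) is left out. Plaque assays: 50 tachyzoites per well with 10 µM compound for 8-10 days, giving plaque count and area by crystal violet/ImageJ. Egress: median time to egress after 1 µM A23187 ionophore following 24 h of 10 µM compound (DMSO ~1.8 min; >10 = no egress within 10 min).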
# [2] = test system: Plasmodium falciparum 3D7; test: % inhibition of schizont-to-ring transition vs DMSO; higher = more inhibition
# Method in brief: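 Schizont-to-ring transition inhibition compares new ring formation with that in vehicle controls. Synchronised P. falciparum schizonts (about 40–42 hours post-invasion, 1% parasitemia, 2.5% hematocrit, AlbuMAX-supplemented RPMI) were exposed to 1, 3 or 10 µM compound, after which rings were counted by Hoechst 33342 flow cytometry across three experiments.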
# [3] = test system: Toxoplasma gondii RH tachyzoites; test: % growth inhibition vs DMSO (48 h luciferase); higher = more inhibition; conditions: 10 µM
# [4] = test system: Plasmodium falciparum 3D7; test: EC50 growth inhibition (60 h, SYBR Green); conditions: stage: ring-stage start
# 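Wherever % growth inhibition vs DMSO (48 h luciferase) is given: tested in triplicate wells of 96-well plates on confluent HFF monolayers, with 1% DMSO wells as negative control in four replicates.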
SMILES,plaque count per well [1],% inhibition of schizont-to-ring transition ([2]; 1 µM) [%],% inhibition of schizont-to-ring transition ([2]; 3 µM) [%],% inhibition of schizont-to-ring transition ([2]; 10 µM) [%],% growth inhibition [3] [%],EC50 growth inhibition [4] [nM]
COc1ccc(C2N(C)c3ccccc3N2C)cc1,28,< 0,< 0,11.8,15.2 ± 13,–
CCCCCCOC(=O)C1=C(C)NC(=O)NC1c1ccccc1F (stereo not given),31,32.7,32.8,40.9,< 0,–
COc1ccc(CCN2C(=O)c3[nH]nc(-c4cc(Cl)c(C)cc4O)c3C2c2ccccc2F)cc1 (stereo not given),0,20,20.6,46.1,< 0,–
CC(C)(C)c1ccc(C(=O)Nc2nc3ccccc3s2)cc1,33,44.3,45.2,54.4,12.1 ± 13,–
CC(C)CNC(=O)c1c(N)n(CCc2ccccc2F)c2nc3ccccc3nc12,28,< 0,< 0,15,< 0,–
COc1ccc(C2C(C(=O)Nc3cccc(OC)c3)c3ccccc3C(=O)N2C2CCCCC2)cc1 (stereo not given),0,12.8,71.3,76.4,13.5 ± 15,–
COc1cc(C(=O)Nc2nc3c(cc4c5c(cccc53)CC4)s2)cc(OC)c1OC,38,3.9,8.08,22.5,4.43 ± 6.7,–
Cc1cc(NC(=O)c2cccc(C(F)(F)F)c2)n(-c2nc(-c3ccc4c(c3)OCO4)cs2)n1,26,13.2,16.2,18.9,< 0,–
COc1ccc(C)c2sc(N(Cc3cccnc3)C(=O)c3ccc(C#N)cc3)nc12,23,21.7,24.1,58.5,< 0,–
Cc1ccc(C(=O)c2oc3ccc4c(C)cc(=O)oc4c3c2C)cc1,24,6.95,10.6,20.4,< 0,–
CCN(CC)CCNc1ccnc2cc(Cl)ccc12,–,73.3,75.3,77.3,45.2 ± 3.8,21.1
O=C(Nc1ccc(C23CC4CC(CC(c5ccccc5)(C4)C2)C3)cc1)c1cccs1,–,17.5,21.8,42.3,76.8 ± 7.4,7300
Cc1ccc(C)c(Cn2c(N3CCC(C(=O)NCc4cccs4)CC3)nc3ccccc32)c1,–,18.6,69.7,68.4,79.1 ± 1.9,6140
Cc1ccc2cc3c(N)c4c(C)ccc(C)c4nc3nc2c1,–,29,72.1,79.8,56.3 ± 6.5,432
CN(C)CCNc1cc(-c2ccccc2)nc2ccccc12,–,6.36,21.7,63.2,66.7 ± 1.5,936
O=C(Nc1ccc(-c2nc3cc4ccccc4cc3[nH]2)cc1)c1cccc(Br)c1,–,10.2,38.5,61.9,50.3 ± 8.7,4310
CCN(CC)CCCNc1ccnc2cc3ccccc3cc12,–,19.5,41.2,42.7,29.2 ± 27,312
CC1CC(C)CN(C(=O)c2ccc(Cl)cc2Cl)C1 (stereo not given),–,< 0,< 0,13.8,31.6 ± 5,1020
O=C(NCc1ccco1)C1CCN(S(=O)(=O)c2ccc(Br)cc2)CC1,–,14.5,30.4,54.8,52.8 ± 11,397

SMILES,plaque count per well [1],% inhibition of schizont-to-ring transition ([2]; 1 µM) [%],% inhibition of schizont-to-ring transition ([2]; 3 µM) [%],% inhibition of schizont-to-ring transition ([2]; 10 µM) [%],% growth inhibition [3] [%],EC50 growth inhibition [4] [nM]
CC(C)(C)CC(C)(C)NCC(O)COc1ccc2c(c1)CCC2 (stereo not given),–,17.3,26.1,47.6,61.6 ± 1.5,4380
CCOC(=O)c1c(C)n(-c2ccc(Cl)cc2)c2ccc(OC(=O)C=Cc3ccccc3)cc12,–,5,7.44,21.6,69.3 ± 5,1020
Cc1[nH]c(-c2ccc(F)cc2)cc1C(=O)NC1CCN(Cc2ccccc2)CC1,–,25.3,47,64.1,44.1 ± 26,580
CCN1CCN(c2cc(C)c3cc(NC(=O)c4ccc(OC)c(OC)c4)ccc3n2)CC1,–,21.3,45.6,63.3,56.5 ± 4.2,814
CCOC(=O)c1c[nH]c2c(CC)cccc2c1=O,–,28.5,28.8,40.9,29.3 ± 36,3280
O=c1cc(NC2CCN(CCCc3ccccc3)CC2)c2cc(Cl)ccc2o1,–,61.1,66.7,68.9,22 ± 19,396
Cc1ccc(-c2cc3c(SCC(=O)Nc4cc(C(F)(F)F)ccc4Cl)nccn3n2)cc1,–,23.9,24.5,30.8,48.6 ± 19,2140
O=C(c1ccccc1F)N(Cc1ccc(Cl)cc1)c1ccccn1,–,2.8,7.52,13.9,82.2 ± 3.3,5700
CC1CCCCN1CCCNC(=O)c1ccc2c(c1)sc1nc(-c3ccc(F)cc3)cn12 (stereo not given),–,15.8,61.1,73.1,48.7 ± 9.3,400
Fc1ccc2[nH]c3c(NCCCN4CCOCC4)ncnc3c2c1,–,3.9,32.7,53.9,34.5 ± 17,466
Cc1cc(NCCN2CCCCC2)c2ccc3ccccc3c2n1,–,46.4,52.1,69.7,78.3 ± 6.7,123
Cc1cc(Nc2ccc3ccccc3c2)n2ncnc2n1,–,57.1,61.7,61.5,24.1 ± 23,53.7
CN(C)c1ccc(-c2nc3cc(N)ccc3[nH]2)cc1,–,5.79,18.4,66.7,40.4 ± 8.4,3020
CCCc1c(CC)c(=N)c2ccccc2n1C,–,7.3,8.61,31,38.7 ± 9.2,6030
CCC(c1ccccc1)c1nn2c(-c3cccs3)nnc2s1 (stereo not given),–,48.6,60,65.8,67.1 ± 4.9,147
FC(F)(F)c1cccc(CNC2CCN(CCc3ccccc3)CC2)c1,–,23.2,60,69.5,45.5 ± 8.4,201
Cc1ccc(OCCCCCCNCCO)c(C)c1,–,6.39,6.91,13.8,76.2 ± 4.2,2870
CCCCN(CCCC)S(=O)(=O)c1ccc(NC(=O)c2ccco2)cc1,–,20,26.6,50.7,74.8 ± 2.1,1530
COc1cc(OC)cc(N2C(=O)N(Cc3ccc(C(C)(C)C)cc3)c3ccccc3S2(=O)=O)c1,–,13.8,15.2,47.7,57.3 ± 12,3500

SMILES,plaque count per well [1],% inhibition of schizont-to-ring transition ([2]; 1 µM) [%],% inhibition of schizont-to-ring transition ([2]; 3 µM) [%],% inhibition of schizont-to-ring transition ([2]; 10 µM) [%],% growth inhibition [3] [%],EC50 growth inhibition [4] [nM]
O=C(Nc1nc(-c2ccccn2)cs1)c1ccccc1Br,–,11,13.5,34.1,98.44 ± 0.08,2160
COc1ccc(CNC(=O)c2cc3c(=O)n4ccccc4nc3n(CCc3ccccc3)c2=N)cc1,–,9.38,17.6,47,56.9 ± 14,2650
O=C(Nc1cccc(-c2nc3ccccc3[nH]2)c1)c1cccc(NC(=O)c2ccco2)c1,–,28.5,37.6,52,48.6 ± 19,6230
O=C(NC1CCCC1)c1ccc(N2CCC(NCc3cccc(C(F)(F)F)c3)CC2)cc1,–,0.815,7.92,41.6,74.7 ± 1.2,2010
CCOc1cc(Br)c(C(C)NC(=O)c2cccc(OC)c2)cc1OCC (stereo not given),–,29.1,67.8,78,34.7 ± 18,427
CC(=O)c1sc(NC(=O)Nc2ccc(C)cc2C)nc1C,–,10.5,30.8,49.7,67.5 ± 3.4,1780
COc1ccccc1CNC(=O)CCn1c(=O)[nH]c2ccccc2c1=O,–,8.85,11.5,18.6,79.9 ± 5.7,663
CCCCOC(=O)c1ccc(Nc2cc(C)nc3ccc(OC)cc23)cc1,–,29,59.5,65.9,69 ± 12,248
CC(C)CCNCC(O)Cn1c2ccccc2c2ccccc21 (stereo not given),–,9.61,49.4,71.7,77.4 ± 2.5,520
COc1ccc(CCN2CCC(CN(C)Cc3cnn(-c4ccccc4)c3)CC2)cc1,–,15.4,48.1,63.7,63.1 ± 4.5,806
O=C(CCl)NCCOc1ccc(Cl)cc1Cl,–,12.1,24.7,43.1,66.2 ± 5.8,717
Cc1ccc(N2C(=O)C3C(C2=O)C2(c4ccccc4)C(=O)C3(c3ccccc3)C(c3ccccc3)=C2c2ccccc2)cc1 (stereo not given),–,< 0,< 0,24.4,55.5 ± 9.4,4250
CCOC(=O)c1ccc2nc(-c3ccccc3)cc(O)c2c1,–,20.2,29.4,44.6,72.2 ± 6,195
O=C(CCc1ccccc1)c1ccccc1OCC(O)CN1CCCCC1 (stereo not given),–,19,44.6,73.3,66.1 ± 15,912
CCOc1cccc2sc(N(Cc3cccnc3)C(=O)C3CCCCC3)nc12,–,35.3,38.9,56.6,29.9 ± 10,4280
Cc1cc(C)cc(Nc2cc(C)nc3nc(C(F)(F)F)nn23)c1,–,46.6,56.5,59.8,53.7 ± 4,56.8
COc1ccc(C=C2SC(=N)N(c3ccccc3OC)C2=O)cc1,–,19.9,35.6,49.7,58.7 ± 3.4,1370
CCOC(=O)c1cnc2c(C)cc(C)cc2c1Nc1ccc(OC)c(OC)c1,–,14.7,32.9,45.1,54.2 ± 2.2,6690
